Where a name gives a salt, the structure may show the parent alone.
What was measured:
Mnk1 = Mnk1 (Homo sapiens (Human), UniProt Q9BUB5); assay: biochemical
[1] = Pharmacokinetics in Balb/c mice, single intravenous bolus administration; assay type: in vivo; conditions: intravenous bolus 1 mg/kg, formulation 10DMA/15EtOH/35PEG300/40D5W, gender F; for AUC(0-inf) / half-life / Vd: female, mouse, plasma; for AUC(0-inf): read-out: AUCINF_obs; for half-life: read-out: T½ (converted); for Vd: read-out: Vss
in vivo = conditions: female, Balb/c, mouse, po, 10 mg/kg; for AUC(0-t): AUClast; for half-life: T½
[2] = female, Balb/c, mouse, in vivo, po, 10 mg/kg

Chain of Mnk1 (Q9BUB5 whole entry): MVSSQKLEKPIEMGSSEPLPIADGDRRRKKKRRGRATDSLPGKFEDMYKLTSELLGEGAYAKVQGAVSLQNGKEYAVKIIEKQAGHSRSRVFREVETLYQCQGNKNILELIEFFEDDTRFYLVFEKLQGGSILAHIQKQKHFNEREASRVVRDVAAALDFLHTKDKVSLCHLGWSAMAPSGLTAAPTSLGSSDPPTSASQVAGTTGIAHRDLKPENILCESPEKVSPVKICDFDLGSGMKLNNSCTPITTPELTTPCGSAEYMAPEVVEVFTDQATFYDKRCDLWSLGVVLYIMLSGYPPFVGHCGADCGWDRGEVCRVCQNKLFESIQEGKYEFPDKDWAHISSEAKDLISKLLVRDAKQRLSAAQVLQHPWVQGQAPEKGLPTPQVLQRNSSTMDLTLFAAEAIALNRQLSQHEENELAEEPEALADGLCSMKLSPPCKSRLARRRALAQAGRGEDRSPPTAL

O=C1NC2(CCNC2)n2c1ccc(Nc1ccncn1)c2=O (stereo not drawn) [Cpd. No. 26, 6-(pyrimidin-4-ylamino)-1H-spiro[imidazo[1,5-a]pyridine-3,3′-pyrrolidine]-1,5(2H)-dione]
IC50 (Mnk1): 10 to 100 nM

CC1(c2cc(F)cc(Cl)c2)NC(=O)c2ccc(Nc3ccncn3)c(=O)n21 (stereo not drawn) [Cpd. No. 28, 3-(3-chloro-5-fluorophenyl)-3-methyl-6-(pyrimidin-4-ylamino)-2,3-dihydroimidazo[1,5-a]pyridine-1,5-dione]
IC50 (Mnk1): 10 to 100 nM

CC1(c2cc(Cl)cc(Cl)c2)NC(=O)c2ccc(Nc3ccncn3)c(=O)n21 (stereo not drawn) [Cpd. No. 33, 3-(3,5-dichlorophenyl)-3-methyl-6-(pyrimidin-4-ylamino)-2,3-dihydroimidazo[1,5-a]pyridine-1,5-dione]
IC50 (Mnk1): 10 to 100 nM

O=C1NC2(CNC2)n2c1c(Cl)cc(Nc1cc(NC(=O)C3CC3)ncn1)c2=O [Cpd. No. 86, N-[6-[(8-chloro-1,5-dioxo-spiro[2H-imidazo[1,5-a]pyridine-3,3′-azetidine]-6-yl)amino]pyrimidin-4-yl]cyclopropanecarboxamide hydrochloride]
IC50 (Mnk1): < 10 nM

CC1(C)NC(=O)c2c(Cl)cc(Nc3cc(N)ncn3)c(=O)n21 [Cpd. No. 88, 6-[(6-aminopyrimidin-4-yl)amino]-8-chloro-3,3-dimethyl-2H-imidazo[1,5-a]pyridine-1,5-dione]
AUC(0-inf) [1]: 273 ng·h/mL
half-life [1]: 78 min
Vd [1]: 3.03 L/kg
Cl_obs [1]: 61 mL/min/kg
AUC(0-t) (in vivo): 2040 ng·h/mL
Cmax (in vivo): 810 ng/mL
Tmax (in vivo): 30 min
half-life (in vivo): 178 min
Tlast [2]: 8 h

Cc1cc(Nc2cc(N)ncn2)c(=O)n2c1C(=O)NC2(C)c1cccc(Cl)c1 (stereo not drawn) [Cpd. No. 92, 6-[(6-aminopyrimidin-4-yl)amino]-3-(3-chlorophenyl)-3,8-dimethyl-2H-imidazo[1,5-a]pyridine-1,5-dione]
IC50 (Mnk1): < 10 nM

Cc1cc(Nc2cc(N)ncn2)c(=O)n2c1C(=O)NC21CCCC1.Cl [Cpd. No. 98, 6-[(6-aminopyrimidin-4-yl)amino]-8-methyl-spiro[2H-imidazo[1,5-a]pyridine-3,1′-cyclopentane]-1,5-dione hydrochloride]
AUC(0-inf) [1]: 358 ng·h/mL
half-life [1]: 107 min
Vd [1]: 3.56 L/kg
Cl_obs [1]: 46.6 mL/min/kg
AUC(0-t) (in vivo): 4180 ng·h/mL
Cmax (in vivo): 1200 ng/mL
Tmax (in vivo): 18 min
half-life (in vivo): 186 min
Tlast [2]: 8 h

Cc1cc(Nc2cc(N)ncn2)c(=O)n2c1C(=O)NC2(C)c1cccc(F)c1 (stereo not drawn) [Cpd. No. 101, 6-((6-aminopyrimidin-4-yl)amino)-3-(3-fluorophenyl)-3,8-dimethyl-2,3-dihydroimidazo[1,5-a]pyridine-1,5-dione]
IC50 (Mnk1): < 10 nM

Cc1cc(Nc2cc(N)ncn2)c(=O)n2c1C(=O)NC21CCC(F)(F)CC1 [Cpd. No. 103, 6-[(6-aminopyrimidin-4-yl)amino]-4′,4′-difluoro-8-methyl-spiro[2H-imidazo[1,5-a]pyridine-3,1′-cyclohexane]-1,5-dione hydrochloride]
IC50 (Mnk1): < 10 nM

CC(C)(C)C1(C)NC(=O)c2c(Cl)cc(Nc3cc(N)ncn3)c(=O)n21 (stereo not drawn) [Cpd. No. 105, 6-[(6-aminopyrimidin-4-yl)amino]-3-tert-butyl-8-chloro-3-methyl-2H-imidazo[1,5-a]pyridine-1,5-dione hydrochloride]
IC50 (Mnk1): < 10 nM

Cc1cc(Nc2cc(N)ncn2)c(=O)n2c1C(=O)NC21CCCCC1 [Cpd. No. 107, 6′-((6-aminopyrimidin-4-yl)amino)-8′-methyl-2′H-spiro[cyclohexane-1,3′-imidazo[1,5-a]pyridine]-1′,5′-dione]
AUC(0-inf) [1]: 502 ng·h/mL
half-life [1]: 175 min
Vd [1]: 3.21 L/kg
Cl_obs [1]: 33.2 mL/min/kg
AUC(0-t) (in vivo): 2760 ng·h/mL
Cmax (in vivo): 950 ng/mL
Tmax (in vivo): 60 min
half-life (in vivo): 318 min
Tlast [2]: 8 h

Nc1cc(Nc2cc(Cl)c3n(c2=O)C2(CCc4ccc(Cl)cc42)NC3=O)ncn1 (stereo not drawn) [Cpd. No. 111, 6-[(6-aminopyrimidin-4-yl)amino]-6′,8-dichloro-spiro[2H-imidazo[1,5-a]pyridine-3,1′-indane]-1,5-dione hydrochloride]
IC50 (Mnk1): < 10 nM
